Tests used:
[1] = Adsorption kinetic model fitting of the five components on the carrier; type: physicochemical; set-up: k, pseudo-first order: unit not given beside the values
Experimental: Preparation of W/HPDA/L nanoparticles: Briefly, 0.5 mL of TEOS were added over a stirred solution of 2 mL of NH3∙H2O solution in 100 mL of ethanol. The reaction mixture was vigorously stirred at room temperature for 3 h to obtain SiO2 nanoparticles. Then, 1.5 mL of APTES were dropped to the reaction mixture. Finally, SiO2-NH2 nanoparticles were collected by centrifugation at 10000 rpm for 10 min, then washed twice with ethanol and resuspended in ethanol for further use. As for the preparation of W@SiO2 nanoparticles, 1 mL of SiO2-NH2 nanoparticles and 4 mL of water components solution (1 mg RA and 12 mg SAB) were first mixed together. Under stirring for 12 h, the resultant W@SiO2 nanoparticles were acquired by centrifugation (10000 rpm, 10 min) and washed thrice with DI water. The total content of water-soluble in the supernatant (free RA and SAB) were determined by HPLC. W@SiO2 nanoparticles obtained by centrifugation were resuspended with Tris-HCl solution containing dopamine hydrochloride. PDA was prepared according to our precious report. This was followed by the addition of 2 mL of etching solution. Then, through centrifugation (12000 rpm, 5 min) and washing with ultrapure water three times, W/HPDA nanoparticles were acquired for later use. After dissolving 6 mg of lipid-soluble components (1 mg CPT, 2.5 mg TSI and 2.5 mg TSA) in 4 mL of ethanol, it was added to 1 mL of W/HPDA nanoparticles dispersed solution. After 12 h of stirring at room temperature, W/HPDA/L nanoparticles were collected by centrifugation and subsequently dispersed in water for further use. Similarly, HPDA was synthesized as previously described. 13 mg of water-soluble components solution (1 mg RA and 12 mg SAB) and 6 mg of lipid-soluble components (1 mg CPT, 2.5 mg TSI and 2.5 mg TSA) were dissolved in 4 mL PBS containing 0.1 % DMSO and added to 3 mL HPDA aqueous dispersion. The mixture was then stirred at room temperature for 12 h, centrifuged, and washed to obtain HPDA/WL nanoparticles. The total content of lipid-soluble in the supernatant (free CPT, TSI and TSA) were determined by HPLC.
An adsorption kinetic model was used to fit the effect of adsorption time on the adsorption performance of adsorbents, further speculating the mechanism of adsorption. The results of the adsorption kinetics of five components were fitted using the pseudo-first-order and pseudo-second-order model, respectively.

[2] = In vitro drug release in 1 % SDS (dialysis, HPLC); type: physicochemical; details: release from W/HPDA/L, 1 % SDS pH 6.5–6.8
Experimental: Five compounds were measured by HPLC at 0.5, 1, 2, 4, 8, 12 and 24 h. In order to elucidate the release mechanism of W/HPDA/L, release kinetic models (Ritger-Peppas model) were employed to fit the data available.

ZO-1 = ZO-1 tension by FRET-based tension probes in bEnd.3 cells; type: cell-based; details: 15 min treatment, then removal and 15 min observation
Experimental: (§1) 6 × 10^4 bEnd.3 cells were seeded in the donor chamber of 24-well transwell inserts. […] The viability of bEnd.3 cells following borneol treatment was assessed using the Cell Counting Kit-8 (CCK-8) assay. We added 0.9 mL of PBS-based assay medium to blank 24-well culture plates and 0.2 mL of borneol (0, 100, 400 μM) to the apical side of the BBB layers. TEER was measured at 5, 10, and 15 min. Additionally, 100 nm silica nanoparticles and sodium fluorescein at the same concentrations were administered at three time points. […] The intracellular tension of the tight junction protein ZO-1 was evaluated using fluorescence resonance energy transfer (FRET)-based tension probes and cpstFRET analysis, as previously described. bEnd.3 cells were transfected with ZO-1 probes and incubated with 1000 μg/mL geneticin. After treating the cells with borneol for 15 min, the borneol was removed, and observations continued for an additional 15 min. Cells treated with Hanks' solution served as the control group. The cell images were taken with × 63 oil lens on a confocal microscope (SP5; Leica, Wetzlar, Germany). The CFP/FRET ratio was calculated using the equation 1/E = cerulean donor/venus acceptor.

bEnd.3 cells [3] = test: Viability of bEnd.3 cells following borneol treatment (CCK-8); type: cell-based; details: 5 to 500 μmol/l
Experimental: as §1

bEnd.3 cells [4] = test: In vitro BBB permeability (bEnd.3 transwell model); type: cell-based; details: 100 and 400 μmol borneol
Experimental: as §1, with “TEER was measured at 5, 10, and 15 min.” left out, “cpstFRET” left out

Row | Compound | Qe, pseudo-first order [1] | Qe, pseudo-second order [1] | k, pseudo-first order [1] | k, pseudo-second order [1] | Ritger-Peppas release exponent n [2] | Ritger-Peppas release model coefficient (y = k t^n) [2] | ZO1 tension (CFP/FRET) (ZO-1) | Cytotoxic effects on bEnd.3 cells (bEnd.3 cells [3]) | Time at which maximum BBB permeability is reached (bEnd.3 cells [4])
1 | C[C@H]1COC2=C1C(=O)C(=O)c1c2ccc2c1CCCC2(C)C [CPT, cryptotanshinone] | 4.60 mg/g | 5.06 mg/g | 0.76 | 0.14 | n = 0.39 | y = 19.26t^n |  |  | 
2 | N[C@@H](CCC(=O)O)C(=O)O [Glu, Glutamate, reference compound] |  |  |  |  |  |  | increased and continued to rise even 15 min after Glu removal |  | 
3 | O=C(/C=C/c1ccc(O)c(O)c1)O[C@H](Cc1ccc(O)c(O)c1)C(=O)O [RA, rosmarinic acid] | 6.23 mg/g | 7.78 mg/g | 0.29 | 0.03 | n = 0.83 | y = 6.28t^n |  |  | 
4 | O=C(/C=C/c1ccc(O)c2c1[C@H](C(=O)O[C@H](Cc1ccc(O)c(O)c1)C(=O)O)[C@@H](c1ccc(O)c(O)c1)O2)O[C@H](Cc1ccc(O)c(O)c1)C(=O)O [SAB, salvianolic acid B] | 18.27 mg/g | 21.95 mg/g | 0.27 | 0.01 | n = 0.78 | y = 8.41t^n |  |  | 
5 | Cc1coc2c1C(=O)C(=O)c1c-2ccc2c1CCCC2(C)C [TSA, tanshinone IIA] | 4.14 mg/g | 4.74 mg/g | 0.89 | 0.21 | n = 0.37 | y = 24.68t^n |  |  | 
6 | Cc1coc2c1C(=O)C(=O)c1c-2ccc2c(C)cccc12 [TSI, tanshinone I] | 4.50 mg/g | 5.21 mg/g | 0.53 | 0.16 | n = 0.35 | y = 27.02t^n |  |  | 
7 | CC1(C)C2CCC1(C)C(O)C2 (stereo not shown) [borneol] |  |  |  |  |  |  | increased but decreased after 15 min of borneol removal | no cytotoxic effects | 10 min

Source: publication PMC12311606, “An efficient brain delivery system co-loaded with multiple components of Salvia miltiorrhiza for synergistic treatment of ischemic stroke” (Materials Today Bio, 2025)
